Reference: US11124847B1, “Systems and methods for assessing perturbations in cellular differentiation using reporter cell lines” (priority 2017, dated 2021)

Tested on: hNPC
Experiment: Immunofluorescence staining and high-content cell analysis of differentiation markers in hNPCs differentiated after 24 hour neurotoxin treatment
Type: cell-based, human
Conditions: for level of GFAP (glial marker): hNPC treated 24 hours
Excerpt: In an example, high-content cell analysis from cells grown in each well in a 96-well plate was sufficient to detect multiple markers via antibody staining and to be normalized to the DAPI signal, a common baseline measure of DNA content. […] In this example, hNPC are indicated by NESTIN (NES) and SRY-Box 2 (SOX2). Glial Fibrillary Acidic Protein (GFAP) is used as a marker of glial cells (both astrocytes and radial glia), and the neuron-specific class III β-tubulin (TUJ1) is used to indicate neurons. Expression of both GFAP and TUJ1 increased at 21 days and 50 days following differentiation, while both SOX2 and NES decreased at 21 days. Levels of SOX2 expression returned to baseline following 50 days.
A broad range of doses for each toxin was selected to determine the dose response and capture the full range to which a developing human brain may be exposed. Cultured hNPC's were treated for 24 hours to avoid complications associated with non-specific toxicity that may occur with chronic treatment, and because we were interested in whether early, acute exposure produces long-term effects detectable in our assay.

Compound: CC(C)(c1ccc(O)cc1)c1ccc(O)cc1 [BPA, bisphenol A]
- level of GFAP (glial marker) (21D time point, low to moderate doses): increase
- level of GFAP (glial marker) (50D time point, low to moderate doses): increase

Compound: C[N+]([O-])=NCO [MAM, methylazoxymethanol]
- level of GFAP (glial marker) (21D time point, increasing doses, vs DMSO control): striking increase
- level of GFAP (glial marker) (50D time point, vs DMSO control): general decrease
- hNPC markers (NESTIN and SOX2) (24 hours, across doses): clear dose-dependent increase
- hNPC-GLIA population (markers of hNPC and glial cells) (21 days, across increasing doses): significant increase
- neuronal population (NEURON) (21 days, as a function of increasing dose): striking decrease
- hNPC-GLIA population (markers of hNPC and glial cells) (50 days): decreased
- neuronal population (NEURON) (50 days): increased

Compound: CCCC(CCC)C(=O)O [VPA, valproic acid]
- level of GFAP (glial marker) (across differentiation time points, compared with MAM and BPA): more modest effects
